Source: patent US20080226571A1, “Compositions and methods to effect enhanced photoprotection against UV A and UV B induced damage of human skin” (priority 2007, published 2008)
Marks after values point to notes of the source that are not given here.

Key:
Format in all cases: cell-based
[1] = test system: HaCaT human keratinocyte cell line; assay: UV A protection of HaCaT keratinocytes, topical application model (Protocol I, SRB viability); conditions: for % UV A protection: Topical model; for UV protection UV A: summary in words, Table I, HaCaT, topical and oral protocols not separated
Description: (§1) The protocol is based on evaluating the reduction in photo damage caused by UV A and UV B in HaCaT human keratinocyte cell line. The cell viability is measured by Sulphorhodamine B assay (SRB assay) after exposure to UV rays. The percentage of UV protection is calculated based on the number of viable cells in the control (untreated) and test HaCaT human keratinocytes (treated with the labdane-diterpenoids based composition of the present invention) after UV exposure. The photoprotection assays to screen compounds for their UV protection efficacy during topical and oral applications as discussed in J Am Acad Dermatol 2003; 49: 458-472 is adopted as a reference.
(§2) Protocol I—Screening compounds suited for topical applications for UV protection efficacy 0.5×10^4 HaCaT human keratinocyte cells/well are counted and seeded into a 96 well micro titer plates. The cells are incubated at 37° C. in 5% CO2 for 24 hours. The growth medium is then removed and replaced with medium containing varying concentrations of the labdane-diterpenoids based composition of the present invention. The cells are immediately exposed to ultraviolet irradiation and further incubated for 72 hours. After 72 hours, the cell viability is determined by SRB assay.
(§3) The UV A exposure in both the protocols involves three UV A bulbs providing 108 watts of power. The plates are exposed for 1 hour at a distance of 5 cm from the source of light. The UV B exposure in both the protocols involves three UV B bulbs which provide 100 μwatt/cm^2 or 0.14 J/cm^2 irradiation dose. The plates are exposed for 7 minutes at a distance of 30 cm from the source of light.

[2] = test system: HaCaT human keratinocyte cell line; assay: UV A protection of HaCaT keratinocytes, oral application model (Protocol II)
Description: as §1
(§4) Protocol II—Screening compounds suited for oral applications for UV protection efficacy 0.5×10^4 HaCaT human keratinocyte cells/well are counted and seeded into a 96 well micro titer plates. The cells are incubated at 37° C. in 5% CO2 for 24 hours. The growth medium is then removed and replaced with medium containing varying concentrations of the labdane-diterpenoids based composition of the present invention. The cells are then incubated for 24 hours to be followed by UV treatment. The UV treated cells are further incubated for 48 hours after which, cell viability is determined using the SRB or neutral red uptake assays.
as §3

[3] = test system: HaCaT human keratinocyte cell line; assay: UV B protection of HaCaT keratinocytes, topical application model (Protocol I, SRB viability); conditions: for % UV B protection as compared to control: Table B, Topical model; for UV protection UV B: summary in words, Table I, HaCaT, topical and oral protocols not separated
Description: as §1, §2, §3

[4] = test system: HaCaT human keratinocyte cell line; assay: UV B protection of HaCaT keratinocytes, oral application model (Protocol II)
Description: as §1, §4, §3

[5] = test system: B16F1 mouse melanoma cells; assay: Intracellular melanin enhancement; conditions: for dose levels still tolerated and effective, relative to the maximum tolerated dose levels of active III: mouse; for Melanin enhancement: summary in words, Table I
Description: B16F1 mouse melanoma cells are treated with varying concentrations of actives I, II and III and other optional actives or combinations thereof at a time interval of 3 days for nine consecutive days. The intracellular melanin in both the controls and test B16F1 mouse melanoma cells is extracted by 1 N NaOH and subjected to a heat treatment at 100° C. The extracted melanin is estimated at 405 nm in a Fluostar Optima Microplate Reader.

[6] = test system: cells of the skin; assay: Relative cytotoxicity (summary Table I); conditions: summary in words

Row | SMILES | % UV A protection ([1]; 0.25 μg/ml) | % UV A protection ([1]; 0.5 μg/ml) | % UV A protection ([1]; 1 μg/ml) | % UV A protection ([1]; 2 μg/ml) | % UV A protection ([1]; 3 μg/ml) | % UV A protection ([1]; 5 μg/ml) | % UV A protection ([1]; 12 μg/ml) | UV protection UV A [1] | % UV A protection ([2]; 0.25 μg/ml) | % UV A protection ([2]; 0.5 μg/ml) | % UV A protection ([2]; 1 μg/ml) | % UV A protection ([2]; 2 μg/ml) | % UV A protection ([2]; 3 μg/ml) | % UV A protection ([2]; 5 μg/ml) | % UV A protection ([2]; 12 μg/ml) | % UV B protection as compared to control ([3]; 0.25 μg/ml) | % UV B protection as compared to control ([3]; 0.5 μg/ml) | % UV B protection as compared to control ([3]; 1 μg/ml) | % UV B protection as compared to control ([3]; 2 μg/ml) | % UV B protection as compared to control ([3]; 3 μg/ml) | also measured
1 | C=C[C@@]1(C)CC(=O)[C@]2(O)[C@@]3(C)[C@@H](O)CCC(C)(C)[C@@H]3[C@H](O)[C@H](O)[C@@]2(C)O1 [Active I, 8,13-epoxy-1α,6β,7β,9α-tetrahydroxylabd-14-en-11-one] | 14% | 16% | 19% | 31* % | 42* % | 49* % | 59* % | Significant | 24* % | 29* % | 58* % | 82* % | 98* % | 97* % | 98* % | 10% | 13% | 20* % | 35* % | 45* % | % UV B protection as compared to control ([3]; 5 μg/ml): 50* %; % UV B protection as compared to control ([3]; 12 μg/ml): 55* %; UV protection UV B [3]: Significant; % UV B protection ([4]; 0.25 μg/ml): 15* %; % UV B protection ([4]; 0.5 μg/ml): 35* %; % UV B protection ([4]; 1 μg/ml): 65* %; % UV B protection ([4]; 2 μg/ml): 80* %; % UV B protection ([4]; 3 μg/ml): 91* %; % UV B protection ([4]; 5 μg/ml): 97* %; % UV B protection ([4]; 12 μg/ml): 98* %; No. of folds of Melanin Enhancement compared to control ([5]; 0.25 μg/ml): 1.1 folds; No. of folds of Melanin Enhancement compared to control ([5]; 0.5 μg/ml): 1.25 folds; No. of folds of Melanin Enhancement compared to control ([5]; 1 μg/ml): 1.9* folds; No. of folds of Melanin Enhancement compared to control ([5]; 2 μg/ml): 2.8* folds; No. of folds of Melanin Enhancement compared to control ([5]; 3 μg/ml): 3.2* folds; No. of folds of Melanin Enhancement compared to control ([5]; 5 μg/ml): 3.8* folds; No. of folds of Melanin Enhancement compared to control ([5]; 12 μg/ml): 4.2* folds; melanin enhancement activity, comparison in words ([5]; Tables C and E): more than active II or active III; dose levels still tolerated and effective, relative to the maximum tolerated dose levels of active III [5]: 2.4 times; Melanin enhancement [5]: Significant
2 | C=C[C@@]1(C)CC(=O)[C@]2(O)[C@@]3(C)[C@@H](O)CCC(C)(C)[C@@H]3[C@H](OC(C)=O)[C@H](O)[C@@]2(C)O1 [Active II, 6β-acetoxy-8,13-epoxy-1α,7β,9α-trihydroxylabd-14-en-11-one] | 10% | 13% | 18* % | 25* % | 35* % | 45* % | 50* % | Moderate | 15* % | 25* % | 55* % | 75* % | 98* % | 97* % | 98* % | 0% | 0% | 15* % | 25* % | 28* % | % UV B protection as compared to control ([3]; 5 μg/ml): 30* %; % UV B protection as compared to control ([3]; 12 μg/ml): 35* %; UV protection UV B [3]: Moderate; % UV B protection ([4]; 0.25 μg/ml): 10* %; % UV B protection ([4]; 0.5 μg/ml): 15* %; % UV B protection ([4]; 1 μg/ml): 18* %; % UV B protection ([4]; 2 μg/ml): 23* %; % UV B protection ([4]; 3 μg/ml): 30* %; % UV B protection ([4]; 5 μg/ml): 35* %; % UV B protection ([4]; 12 μg/ml): 40* %; No. of folds of Melanin Enhancement compared to control ([5]; 0.25 μg/ml): 1 folds; No. of folds of Melanin Enhancement compared to control ([5]; 0.5 μg/ml): 1.1 folds; No. of folds of Melanin Enhancement compared to control ([5]; 1 μg/ml): 1.6* folds; No. of folds of Melanin Enhancement compared to control ([5]; 2 μg/ml): 2.3* folds; No. of folds of Melanin Enhancement compared to control ([5]; 3 μg/ml): 3* folds; No. of folds of Melanin Enhancement compared to control ([5]; 5 μg/ml): 3.45* folds; No. of folds of Melanin Enhancement compared to control ([5]; 12 μg/ml): 3.5* folds; dose levels still tolerated and effective, relative to the maximum tolerated dose levels of active III [5]: 2.4 times; Melanin enhancement [5]: Moderate
3 | C=C[C@@]1(C)CC(=O)[C@]2(O)[C@@]3(C)[C@@H](O)CCC(C)(C)[C@@H]3[C@H](O)[C@H](OC(C)=O)[C@@]2(C)O1 [Active III, 7β-acetoxy-8,13-epoxy-1α,6β,9α-trihydroxylabd-14-en-11-one] | 5% | 10% | 15* % | 20* % | 29* % | toxic | toxic | Moderate | 10% | 15* % | 20* % | 26* % | 38* % | toxic | toxic | 0% | 2% | 5% | 5% | 5% | % UV B protection as compared to control ([3]; 5 μg/ml): toxic; % UV B protection as compared to control ([3]; 12 μg/ml): toxic; UV protection UV B [3]: Nil; % UV B protection ([4]; 0.25 μg/ml): 0%; % UV B protection ([4]; 0.5 μg/ml): 2%; % UV B protection ([4]; 1 μg/ml): 4%; % UV B protection ([4]; 2 μg/ml): 4%; % UV B protection ([4]; 3 μg/ml): 5%; % UV B protection ([4]; 5 μg/ml): toxic; % UV B protection ([4]; 12 μg/ml): toxic; No. of folds of Melanin Enhancement compared to control ([5]; 0.25 μg/ml): 1 folds; No. of folds of Melanin Enhancement compared to control ([5]; 0.5 μg/ml): 1.1 folds; No. of folds of Melanin Enhancement compared to control ([5]; 1 μg/ml): 1.5* folds; No. of folds of Melanin Enhancement compared to control ([5]; 2 μg/ml): 2* folds; No. of folds of Melanin Enhancement compared to control ([5]; 3 μg/ml): 2.8* folds; No. of folds of Melanin Enhancement compared to control ([5]; 5 μg/ml): toxic; No. of folds of Melanin Enhancement compared to control ([5]; 12 μg/ml): toxic; Melanin enhancement [5]: Moderate; Cytotoxicity [6]: Cytotoxic
